Reference: patent publication US8987309B2, “Compounds, pharmaceutical compositions and methods of use of 2-aryl pyridylazoles” (The Translational Genomics Research Institute, priority 2009, dated 2015)

What was measured:
A498 = assay: IC50 in tumor cell lines (A498); type: cell-based; settings: Table 2; kidney tumor cell line A498
Procedure: (§1) Cytotoxicity Assays. Cytotoxicity assays in the mechanism of action studies were performed according to Mosmann (1983), wherein the activity of mitochondrial reductases were measured using 3-(4,5-dimethylthiozol-3-yl)-2,5-diphenyltetrozolium bromide dye. In brief, cells were seeded in 96-well plates and incubated for various times at 37° C. Inhibition of cell growth was measured by adding 3-(4,5-dimethylthiozol-3-yl)-2,5-diphenyltetrozolium bromide dye, and after an additional 4 h of incubation at 37° C., the 96-well plates were centrifuged, and the culture supernatant was removed. DMSO was added to each well to solubilize the formazan crystals, and the optical density was read at 540 nm on a Quant Spectrophotometer (BioTek Instruments, Winooski, Vt.). Cell growth inhibition data are expressed as percentage of survival compared with untreated cells. The IC50 is defined as the drug concentration required to produce 50% growth inhibition. Results are mean S.E.M. (n 3).

[1] = Plasma protein binding (rapid equilibrium dialysis), mouse plasma; type: in vitro ADME; settings: plasma concentration of 3.27 μM
Procedure: Plasma Protein Binding. Plasma protein binding of DPC-046 was determined in human and mouse plasma using rapid equilibrium dialysis (RED) devices manufactured by Thermo Fisher Scientific. Plasma pH was adjusted to 7.4 and spiked with DPC-046 to a final plasma concentration of 1 μg/ml. Aliquots (500 μl) of the spiked plasma were placed into the sample chamber, and 750 μl of phosphate-buffered saline were placed into the adjacent chamber. Triplicate samples were loaded into the RED devices. The RED devices were incubated at 37° C. on an orbital shaker operating at 100 rpm for 24 h. […] After the incubation, aliquots of plasma and buffer were removed for the analysis of DPC-046 concentration by LC-MS-MS as described above.

TrkB = TrkB (Homo sapiens, UniProt Q16620); assay: Follow-up kinase screening and IC50 (SignalChem), TrkB; type: biochemical; parameters: assay run by SignalChem Pharmaceuticals, Inc. (Richmond, BC, Canada)
Caki-1 = assay: IC50 in tumor cell lines (Caki-1); type: cell-based; settings: Table 2; kidney tumor cell line Caki-1
Procedure: as §1

OVCAR3 = assay: IC50 in tumor cell lines (OVCAR3); type: cell-based; settings: Table 2; ovarian tumor cell line OVCAR3
Procedure: as §1

SK-OV-3 = assay: IC50 in tumor cell lines (SK-OV-3); type: cell-based; settings: Table 2; ovarian tumor cell line SK-OV-3
Procedure: as §1

[2] = Pharmacokinetic study, single intravenous dose; type: in vivo, SCID mice; settings: single intravenous 88 mg/kg
Procedure: Pharmacokinetic Studies. The pharmacokinetics of DPC-046 in nontumor bearing SCID mice was determined after intravenous administration of a single dose of 88 mg/kg. Plasma samples were collected at 0, 1, 5, 15, 30, 60, 90, 120, 240, 480, 960, and 1440 min after dosing. Plasma DPC-046 concentrations were analyzed by reversed-phase chromatography and tandem mass spectrometry. In brief, mouse plasma was mixed with 99 volumes of acetonitrile, and an aliquot of the supernatant was injected onto the LC-MS. The LC-MS analysis was performed on a ThermoFinnigan Quantum Ultra triple quadrupole mass spectrometer (Thermo Fisher Scientific, Waltham, Mass.) in tandem with a Surveyor LC system. […] Data are mean±S.E.M. (n=3).

[3] = system: synthesis of DNA, RNA, or protein; assay: Measurement of macromolecular synthesis (radiolabeled precursors); type: cell-based
Procedure: Measurement of Macromolecular Synthesis. Radiolabeled precursors of DNA ([^3H]thymidine) and protein ([^14C]valine) were obtained from GE Healthcare (Piscataway, N.J.). The RNA precursor [^3H]uridine was obtained from MP Biomedical (Irvine, Calif.). In brief, cells were plated in 96-well plates and allowed to adhere before adding DPC-046 for 24 to 72 h. Radiolabeled precursors ([…] for thymidine and uridine, and 0.05 µCi/well for valine) were added and allowed to incorporate for 6 h at 37° C. Cells were harvested onto Unifilter-96 GF/B filterplates using a Packard Filtermate 96-well harvester and counted using a Packard Top Count NXT 96-well scintillation counter (PerkinElmer Life and Analytical Sciences, Boston, Mass.).

BxPC3 DPC-4(−/−) cells = assay: Measurement of apoptosis and necrosis (Annexin V/PI); type: cell-based, Human; settings: 24 to 72 h, highest concentration 1500 nM
Procedure: Measurement of Apoptosis and Necrosis. Apoptosis and necrosis after DPC-046 treatment was measured at 24 to 72 h by flow cytometry (Vermes et al., 1995) using Annexin V-Alexa Fluor 488 (Invitrogen) and propidium iodide (BioVision, Mountain View, Calif.). Because of the greater photostability of Alexa Fluor 488 over fluorescein isothiocyanate, we substituted Alexa Fluor 488-labeled Annexin V for fluorescein isothiocyanate-labeled Annexin V. Apoptosis was measured by positive Annexin V staining, indicating the translocation of phosphatidylserine on the cell membrane of apoptotic cells, whereas necrosis was measured by dual labeling of Annexin V and propidium iodide of necrotic cells. Unstained cells were deemed alive. Fluorescence of Annexin V-Alexa Fluor 488 and PI was measured on FL1 and FL2, respectively, on a BD Biosciences FACScan using CellQuest Pro software (BD Biosciences). Data are mean S.E.M. (n 3).
Mean±S.E.M., n=3. […] Mean±S.E.M., n=3. […] Mean tumor burden is shown.

A549 = assay: IC50 in tumor cell lines (A549); type: cell-based; settings: lung tumor cell line A549
Procedure: as §1

MiaPaCa-2 tumors = assay: Antitumor efficacy and tolerability, MiaPaCa-2 tumors in SCID mice
Procedure: In Vivo Studies. Six- to 7-week-old male SCID mice were implanted with 10×10^6 MiaPaCa-2 cells in MatriGel (BD Biosciences) subcutaneously in the flank to establish tumors. Once the tumors reached approximately 100 mm^3 and were palpable (approximately 3 weeks later), DPC-046 treatment was initiated. […] Mice were administered vehicle alone or 44, 55, or 66 mg/kg/day DPC-046 intraperitoneally for 5 consecutive days. Tumor size, body weight, and general health of each mouse were recorded every 3rd day for the duration of the study.
FIG. 15 depicts the antitumor efficacy of (D)PC-046 in SCID mice. 10×10^6 MiaPaCa-2 cells in MatriGel were implanted subcutaneously into the flanks of SCID mice. Mice were randomized on day 6 (arrow) and then injected with vehicle alone or 44 or 55 mg/kg/day (D)PC-046 intraperitoneally daily for 5 consecutive days. Mean tumor burden is shown. Mean±S.D. (n=4 or 5). FIG. 16 depicts the AUC of tumor size versus time of MiaPaCa-2 tumors in SCID mice.

DU145 = assay: IC50 in tumor cell lines (DU145); type: cell-based; settings: Table 1; prostate tumor cell line DU145
Procedure: as §1

H460 = assay: IC50 in tumor cell lines (H460); type: cell-based; settings: lung tumor cell line H460
Procedure: as §1

[4] = 66 mg/kg/day i.p., 5 consecutive days, initial dose-ranging study

Chain of TrkB (Q16620 32-822): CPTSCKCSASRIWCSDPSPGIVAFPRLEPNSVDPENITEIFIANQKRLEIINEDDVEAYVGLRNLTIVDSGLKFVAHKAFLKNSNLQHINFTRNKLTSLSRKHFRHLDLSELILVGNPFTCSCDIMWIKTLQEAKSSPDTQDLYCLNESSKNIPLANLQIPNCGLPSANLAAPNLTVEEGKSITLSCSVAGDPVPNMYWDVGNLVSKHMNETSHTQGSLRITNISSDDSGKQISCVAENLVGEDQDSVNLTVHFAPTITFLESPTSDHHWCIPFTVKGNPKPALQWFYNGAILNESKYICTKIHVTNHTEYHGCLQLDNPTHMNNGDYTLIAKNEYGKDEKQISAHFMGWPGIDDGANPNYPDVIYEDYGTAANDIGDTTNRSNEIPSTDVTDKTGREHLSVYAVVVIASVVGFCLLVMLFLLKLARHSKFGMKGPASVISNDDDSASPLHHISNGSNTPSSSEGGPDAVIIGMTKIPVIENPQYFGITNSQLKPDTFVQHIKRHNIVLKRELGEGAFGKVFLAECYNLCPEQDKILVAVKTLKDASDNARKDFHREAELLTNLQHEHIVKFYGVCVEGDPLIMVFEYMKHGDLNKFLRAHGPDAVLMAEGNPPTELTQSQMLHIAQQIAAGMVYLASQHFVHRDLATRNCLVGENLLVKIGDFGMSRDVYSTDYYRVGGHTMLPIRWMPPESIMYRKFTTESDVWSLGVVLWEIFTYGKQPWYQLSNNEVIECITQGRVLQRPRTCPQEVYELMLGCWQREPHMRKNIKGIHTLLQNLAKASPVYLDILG

COc1ccc(-c2cnc(-c3ccncc3-c3cccc(OC)c3)o2)cc1 [DPC046]
IC50 (A498): 0.014 µM
bound to plasma proteins [1]: 91%
inhibition of TrkB (TrkB; 25 μM DPC-046, follow-up screen): more than 70%
inhibition of TrkB (TrkB; highest concentration tested (50 μM)): 98%
IC50 (Caki-1): 0.013 µM
IC50 (OVCAR3): 0.013 µM
IC50 (SK-OV-3): 0.017 µM
apparent volume of distribution ([2]; mice): 135.2 L/kg
clearance ([2]; mice): 248 mL/min/kg
mean (S.D.) plasma concentration at last sampling time ([2]; mice, 24 h): 0.226 (0.104) μM
mean (S.D.) peak plasma concentration ([2]; mice, first sampling time (1 min)): 10.8 (4.26) μM
monoexponential half-life ([2]; mouse plasma): 7.5 h
selectivity of inhibition of DNA, RNA or protein synthesis (in words) ([3]; 24 to 72 h): no selective inhibition
IC50 ([3]; DNA, RNA, protein, average, at 72 h, read-out: IC50 for inhibition of synthesis of each macromolecule): ~3 µM
mechanism of cell death (in words) (BxPC3 DPC-4(−/−) cells; listed as (D)PC-046): both early apoptotic and necrotic cell death
mechanism of cell death (in words) (BxPC3 DPC-4(−/−) cells; listed as DPC-046): cell death by a combination of apoptosis and necrosis
IC50 (A549; Table 1): 0.022 µM
IC50 (A549; Table 2): 0.022 µM
antitumor efficacy (in words) (MiaPaCa-2 tumors; 44 mg/kg/day daily for 5 days): not effective
average loss of body weight (MiaPaCa-2 tumors; 55 mg/kg/day group, while receiving injections, recovered by end of study): 15.8%
area under the tumor size X time curve vs controls (in words) (MiaPaCa-2 tumors; 55 mg/kg/day group, p=0.014): statistically significant reduction
weight loss (MiaPaCa-2 tumors; 55 mg/kg/day, daily for 5 days, initial study): 10%
MiaPaCa-2 tumor growth vs untreated controls (in words) (MiaPaCa-2 tumors; 55 mg/kg/day, daily for 5 days, preliminary data not shown): reduced MiaPaCa-2 tumor growth
tolerability (in words) (MiaPaCa-2 tumors; 66 mg/kg/day i.p., 5 consecutive days): not tolerated
death (MiaPaCa-2 tumors; [4]): 60%
weight loss (MiaPaCa-2 tumors; [4]): −15%
MiaPaCa-2 tumor growth vs untreated group (in words) (MiaPaCa-2 tumors; experiment comparing 44 or 55 mg/kg/day daily for 5 days): significant inhibition of MiaPaCa-2 tumor growth
IC50 (DU145): 0.027 µM
IC50 (H460; Table 1): 0.025 µM
IC50 (H460; Table 2): 0.025 µM
